In paper PMC8548355 (Medicinal Chemistry Research, 2021):
Converted amounts (≈) assume the structure as drawn.

Tests used:
S. aureus ATCC 29213 [1] = assay: Drug interaction of 22 with FDA-approved drugs, checkerboard method; type: cell-based, Staphylococcus aureus; conditions: for MIC of drug in the presence of “22” “B”: S. aureus ATCC 29213, checkerboard, in combination with 22; for MIC: Staphylococcus aureus, ATCC29213, 24 h, read-out: MIC (drug alone); for Inference (drug interaction): combination of 22 with the drug, S. aureus ATCC 29213
E. coli ATCC 25922 = assay: MIC by broth microdilution against E. coli ATCC 25922; type: cell-based; conditions: Escherichia coli, ATCC25922, read-out: MIC against E. coli ATCC 25922
S. aureus ATCC 29213 [2] = assay: MIC by broth microdilution against S. aureus ATCC 29213; type: cell-based, Staphylococcus aureus; conditions: for MIC: Staphylococcus aureus, ATCC29213, read-out: MIC against S. aureus ATCC 29213, broth microdilution, 37 °C, 16–18 h; for MIC against S. aureus ATCC 29213: broth microdilution, 37 °C, 16–18 h
K. pneumoniae BAA 1705 = assay: MIC by broth microdilution against K. pneumoniae BAA 1705; type: cell-based; conditions: Klebsiella pneumoniae, BAA1705, read-out: MIC against K. pneumoniae BAA 1705
A. baumannii BAA 1605 = assay: MIC by broth microdilution against A. baumannii BAA 1605; type: cell-based; conditions: Acinetobacter baumannii, BAA1605, read-out: MIC against A. baumannii BAA 1605

In the case of `CN(C)c1ccc(O)c2c1C[C@H]1C[C@H]3[C@H](N(C)C)C(O)=C(C(N)=O)C(=O)[C@@]3(O)C(O)=C1C2=O` [Minocycline], the “MIC of drug in the presence of “22” “B”” value (S. aureus ATCC 29213 [1]) is reported as 0.125 µg/mL, the MIC (S. aureus ATCC 29213 [1]) is reported as 0.125 µg/mL and the “Inference (drug interaction)” value (S. aureus ATCC 29213 [1]) is reported as “No interaction”.

With `CO[C@H]1/C=C/O[C@@]2(C)Oc3c(C)c(O)c4c(O)c(c(/C=N/N5CCN(C)CC5)c(O)c4c3C2=O)NC(=O)/C(C)=C\C=C\[C@H](C)[C@H](O)[C@@H](C)[C@@H](O)[C@@H](C)[C@H](OC(C)=O)[C@@H]1C` [Rifampicin] the “Inference (drug interaction)” value (S. aureus ATCC 29213 [1]) was “No interaction”.

For `CCCCCCCCCC(=O)N[C@@H](Cc1c[nH]c2ccccc12)C(=O)N[C@H](CC(N)=O)C(=O)N[C@@H](CC(=O)O)C(=O)N[C@@H]1C(=O)NCC(=O)N[C@@H](CCCN)C(=O)N[C@@H](CC(=O)O)C(=O)N[C@H](C)C(=O)N[C@@H](CC(=O)O)C(=O)NCC(=O)N[C@H](CO)C(=O)N[C@@H]([C@H](C)CC(=O)O)C(=O)N[C@@H](CC(=O)c2ccccc2N)C(=O)O[C@@H]1C` [Daptomycin], the “MIC of drug in the presence of “22” “B”” value (S. aureus ATCC 29213 [1]) was 1 µg/mL, the MIC (S. aureus ATCC 29213 [1]) was 1 µg/mL and the “Inference (drug interaction)” value (S. aureus ATCC 29213 [1]) was “No interaction”.

`O=C(Nc1ccc(F)cc1)c1cc(Cl)ccc1O` [Compound 8, 5-Chloro-N-(4ʹ-fluorophenyl)-2-hydroxybenzamide] was tested, and the MIC (E. coli ATCC 25922) was > 64 µg/mL, the MIC (S. aureus ATCC 29213 [2]) was 2 µg/mL (≈ 7.53 µM) and the MIC (K. pneumoniae BAA 1705) was > 64 µg/mL. For the same molecule, the MIC (A. baumannii BAA 1605) was > 64 µg/mL.

`O=C(Nc1ccc([N+](=O)[O-])cc1F)c1ccccc1O` [Compound 17, N-(2ʹ-fluoro-4ʹ-nitrophenyl)-2-hydroxybenzamide] was tested, and the MIC (S. aureus ATCC 29213 [2]) was 2 µg/mL (≈ 7.24 µM).

In the case of `O=C(Nc1ccc(F)c(F)c1)c1cc(Cl)ccc1O` [Compound 12, 5-Chloro-N-(3ʹ,4ʹ-difluorophenyl)-2-hydroxybenzamide], the MIC (E. coli ATCC 25922) is reported as > 64 µg/mL, the “MIC against S. aureus ATCC 29213” value (S. aureus ATCC 29213 [2]) is reported as 0.5 µg/mL (≈ 1.76 µM) and the MIC (K. pneumoniae BAA 1705) is reported as > 64 µg/mL. For the same molecule, the MIC (A. baumannii BAA 1605) was > 64 µg/mL.

For `O=C(Nc1ccc(F)cc1)c1ccccc1O` [Compound 7, N-(4ʹ-fluorophenyl)-2-hydroxybenzamide], the MIC (E. coli ATCC 25922) was > 64 µg/mL, the MIC (K. pneumoniae BAA 1705) was > 64 µg/mL and the MIC (A. baumannii BAA 1605) was > 64 µg/mL.

With `O=C(Nc1ccc(F)cc1[N+](=O)[O-])c1ccccc1O` [Compound 15, N-(4ʹ-fluoro-2ʹ-nitrophenyl)-2-hydroxybenzamide] the MIC (E. coli ATCC 25922) was > 64 µg/mL, the MIC (S. aureus ATCC 29213 [2]) was 32 µg/mL (≈ 116 µM) and the MIC (K. pneumoniae BAA 1705) was > 64 µg/mL. For the same molecule, the MIC (A. baumannii BAA 1605) was > 64 µg/mL.

`CNC(C)C1CCC(N)C(OC2C(N)CC(N)C(OC3OCC(C)(O)C(NC)C3O)C2O)O1` (stereo not shown) [Gentamicin] was tested, and the “MIC of drug in the presence of “22” “B”” value (S. aureus ATCC 29213 [1]) was 0.25 µg/mL, the MIC (S. aureus ATCC 29213 [1]) was 0.5 µg/mL and the “Inference (drug interaction)” value (S. aureus ATCC 29213 [1]) was “No interaction”.

For `O=C(Nc1ccc([N+](=O)[O-])cc1F)c1cc(Cl)ccc1O` [Compound 18, 5-Chloro-N-(2ʹ-fluoro-4ʹ-nitrophenyl)-2-hydroxybenzamide], the MIC (E. coli ATCC 25922) was > 64 µg/mL, the MIC (S. aureus ATCC 29213 [2]) was 1 µg/mL (≈ 3.22 µM) and the MIC (K. pneumoniae BAA 1705) was > 64 µg/mL. For the same molecule, the MIC (A. baumannii BAA 1605) was > 64 µg/mL.

In the case of `O=C(Nc1ccccc1)c1cccc(Cl)c1` [Compound 4, N-(phenyl)-3-chlorobenzamide], the MIC (E. coli ATCC 25922) is reported as > 64 µg/mL, the MIC (S. aureus ATCC 29213 [2]) is reported as > 64 µg/mL and the MIC (K. pneumoniae BAA 1705) is reported as > 64 µg/mL. The MIC (A. baumannii BAA 1605) was > 64 µg/mL.

In the case of `O=C(Nc1ccc(F)c(F)c1)c1ccccc1O` [Compound 11, N-(3ʹ,4ʹ-difluorophenyl)-2-hydroxybenzamide], the MIC (E. coli ATCC 25922) is reported as > 64 µg/mL, the MIC (K. pneumoniae BAA 1705) is reported as > 64 µg/mL and the MIC (A. baumannii BAA 1605) is reported as > 64 µg/mL.

`O=C(Nc1ccc(Cl)c(C(F)(F)F)c1)c1ccccc1O` [Compound 19, N-(4ʹ-chloro-3ʹ-(trifluoromethyl)phenyl)-2-hydroxybenzamide] was tested, and the MIC (E. coli ATCC 25922) was > 64 µg/mL, the MIC (S. aureus ATCC 29213 [2]) was 1 µg/mL (≈ 3.17 µM) and the MIC (K. pneumoniae BAA 1705) was > 64 µg/mL. For the same molecule, the MIC (A. baumannii BAA 1605) was > 64 µg/mL.

For `O=C(Nc1ccccc1)c1cc(Cl)ccc1O` [Compound 6, 5-Chloro-N-(phenyl)-2-hydroxy-benzamide], the MIC (E. coli ATCC 25922) was > 64 µg/mL, the MIC (S. aureus ATCC 29213 [2]) was 8 µg/mL (≈ 32.3 µM) and the MIC (K. pneumoniae BAA 1705) was > 64 µg/mL. The MIC (A. baumannii BAA 1605) was > 64 µg/mL.

`O=C(Nc1ccc(F)cc1[N+](=O)[O-])c1cc(Cl)ccc1O` [Compound 16, 5-Chloro-N-(4ʹ-fluoro-2ʹ-nitrophenyl)-2-hydroxybenzamide] was tested, and the MIC (E. coli ATCC 25922) was > 64 µg/mL, the MIC (S. aureus ATCC 29213 [2]) was 3.88 µg/mL (≈ 12.5 µM) and the “MIC against S. aureus ATCC 29213” value (S. aureus ATCC 29213 [2]) was 4 µg/mL (≈ 12.9 µM). For the same molecule, the MIC (K. pneumoniae BAA 1705) was > 64 µg/mL and the MIC (A. baumannii BAA 1605) was > 64 µg/mL.

In the case of `O=C(Nc1ccccc1F)c1cc(Cl)ccc1O` [Compound 10, 5-Chloro-N-(2ʹ-fluorophenyl)-2-hydroxybenzamide], the MIC (E. coli ATCC 25922) is reported as > 64 µg/mL, the MIC (S. aureus ATCC 29213 [2]) is reported as 4 µg/mL (≈ 15.1 µM) and the MIC (K. pneumoniae BAA 1705) is reported as > 64 µg/mL. The MIC (A. baumannii BAA 1605) was > 64 µg/mL.

With `O=C(Nc1ccc(F)c(Cl)c1)c1ccccc1O` [Compound 13, N-(3ʹ-chloro-4ʹ-fluorophenyl)-2-hydroxybenzamide] the MIC (E. coli ATCC 25922) was > 64 µg/mL, the MIC (S. aureus ATCC 29213 [2]) was 4 µg/mL (≈ 15.1 µM) and the MIC (K. pneumoniae BAA 1705) was > 64 µg/mL. For the same molecule, the MIC (A. baumannii BAA 1605) was > 64 µg/mL.

`O=C(Nc1ccccc1F)c1ccccc1O` [Compound 9, N-(2ʹ-fluorophenyl)-2-hydroxybenzamide] was tested, and the MIC (E. coli ATCC 25922) was > 64 µg/mL, the MIC (K. pneumoniae BAA 1705) was > 64 µg/mL and the MIC (A. baumannii BAA 1605) was > 64 µg/mL.

With `O=C(Nc1ccccc1)c1ccccc1O` [Compound 5, N-(phenyl)-2-hydroxybenzamide] the MIC (E. coli ATCC 25922) was > 64 µg/mL, the MIC (S. aureus ATCC 29213 [2]) was 64 µg/mL (≈ 300 µM) and the MIC (K. pneumoniae BAA 1705) was > 64 µg/mL. For the same molecule, the MIC (A. baumannii BAA 1605) was > 64 µg/mL.

`O=C(Nc1ccccc1)c1ccccc1` [Compound 3, N-phenylbenzamide] was tested, and the MIC (E. coli ATCC 25922) was > 64 µg/mL, the MIC (S. aureus ATCC 29213 [2]) was > 64 µg/mL and the MIC (K. pneumoniae BAA 1705) was > 64 µg/mL. For the same molecule, the MIC (A. baumannii BAA 1605) was > 64 µg/mL.

`CC(C)(O/N=C(\C(=O)N[C@@H]1C(=O)N2C(C(=O)[O-])=C(C[n+]3ccccc3)CS[C@H]12)c1csc(N)n1)C(=O)O` [Ceftazidime] was tested, and the “MIC of drug in the presence of “22” “B”” value (S. aureus ATCC 29213 [1]) was 16 µg/mL, the MIC (S. aureus ATCC 29213 [1]) was 16 µg/mL and the “Inference (drug interaction)” value (S. aureus ATCC 29213 [1]) was “No interaction”.

`O=C(Nc1ccc(F)c(Cl)c1)c1cc(Cl)ccc1O` [Compound 14, 5-Chloro-N-(3ʹ-chloro-4ʹ-fluorophenyl)-2-hydroxybenzamide] gave an MIC (S. aureus ATCC 29213 [2]) of 0.5 µg/mL (≈ 1.67 µM).

`CC(=O)NC[C@H]1CN(c2ccc(N3CCOCC3)c(F)c2)C(=O)O1` [Linezolid] was tested, and the “MIC of drug in the presence of “22” “B”” value (S. aureus ATCC 29213 [1]) was 0.5 µg/mL, the MIC (S. aureus ATCC 29213 [1]) was 2 µg/mL and the “Inference (drug interaction)” value (S. aureus ATCC 29213 [1]) was “No interaction”.
